Experiments:
APP/PS1 mice = experiment: Morris Water Maze test of spatial learning and memory; format: in vivo; conditions: 3 weeks oral treatment
Description: A Morris Water Maze test was used to evaluate spatial learning and memory after 3 weeks treatment with oral aprepitant or vehicle in APP/PS1 or wild type (WT) mice.
Animal Model. All experiment protocols using animals were performed ethically and in accordance with the guidelines established by the Institutional Animal Care and Use Committee at Washington University. APPswe/PS1DE9 hemizygous mice (Jackson Laboratory, RRID: MMRRC_034829.JAX) (Savonenko et al., 2003) were bred to wild type C3H/B6 mice and aged the APP/PS1^+/− offspring to 2-3.5 months for microdialysis experiments or aged to 9 months for behavioral testing. Males and females were included in each group; aprepitant treated mice n=20 (11 males, 9 females), Vehicle treated mice […] for microdialysis experiments. […]
Morris water maze (MWM) test. […] The PVC escape platform measured 11.5 cm in diameter. A digital video camera connected to a PC computer and the computer software program ANY-maze (Stoelting Co., Wood Dale, IL) tracked the swimming pathway of the mouse to the escape platform and quantified path length, latency to find escape platform, and swimming speeds. […]

[1] = tested on: brain interstitial fluid (ISF) Aβ; experiment: In vivo microdialysis of brain interstitial fluid (ISF) Aβ with Aβ sandwich ELISA; conditions: APP/PS1+/− mice, 40 mg/kg oral gavage
Description: In vivo microdialysis was utilized to measure the basal concentration of ISF Aβ in each mouse, followed by administration via oral gavage of 40 mg/kg dose of aprepitant or vehicle (corn oil) and continued measurement of Aβ over 24 hours.
Three-four month old APP/PS1^+/− mice were implanted with unilateral guide cannula above the hippocampus followed by insertion of microdialysis probes (see, for example, In Vivo AβMicrodialysis of Example 7). Each animal recovered for 3 days between guide cannula implantation and start of microdialysis. Littermate females and males were separated randomly into each treatment group. Throughout each microdialysis study, mice were housed in special RaTurn caging systems to provide freedom of movement and ad lib food and water while the microdialysis equipment was attached. […]
Following drug administration, ISF was measured every 60 minutes for 24 hours. […] ISF APβ was immediately measured at the end of each study by Aβ sandwich ELISA. […]
In Vivo Aβ Microdialysis. […] Samples were collected every 60 or 90 minutes into a refrigerated fraction collector (Univentor Limited) in polypropylene tubes and assessed for […] by sandwich ELISA. […]
Aβ Sandwich ELISA. ISF Aβx-40 levels were measured using sandwich ELISAs as described (Hettinger et al., 2018). […]

For C[C@H](O[C@@H]1OCCN(Cc2n[nH]c(=O)[nH]2)[C@H]1c1ccc(F)cc1)c1cc(C(F)(F)F)cc(C(F)(F)F)c1 [aprepitant], the “spatial memory for the platform location (time spent in the target quadrant, probe trial)” value (APP/PS1 mice; compared to vehicle-treated APP/PS1 mice, preliminary data) was “trend for improved memory”, the “spatial learning (path length, learning trials)” value (APP/PS1 mice; n=4 vs vehicle n=3, preliminary data, trend) was “improved spatial learning” and the “average ISF Aβ levels post gavage compared to vehicle treated mice” value ([1]; Bonferroni post hoc, p=0.0002) was “significantly lower”. For the same compound, the “ISF Aβ levels, change from baseline (within group)” value ([1]; hippocampal ISF measured over 24 hours, p <0.0001, vehicle (corn oil) mice did not decrease (p=0.4003)) was “significantly decreased from their baseline”.

— patent US12144815B2, “Use of aprepitant for treating Alzheimer's disease” (Hoth Therapeutics, Inc., priority 2021, dated 2024)
